The text below walks through data of EP0731088B1, “Retroviral protease inhibitors” (MONSANTO COMPANY, priority 1990, dated 1992).

The structures appear in SMILES notation.

In one test the target is T1, HIV protease (Human immunodeficiency virus type 1 group M subtype B, UniProt P04585).
T1 construct: HIV protease is diluted in the assay buffer to a final enzyme concentration of 12.3 nanomolar, based on a molecular weight of 10,780
In words: HIV protease enzyme assay (fluorogenic substrate 2-aminobenzoyl-Ile-Nle-Phe(p-NO2)-Gln-ArgNH2). It is filed as biochemical. Conditions: substrate 80 µM, enzyme 12.3 nanomolar, pH 6.4, ambient temperature. The text has this: The compounds of the present invention are effective HIV protease inhibitors. Utilizing an enzyme assay as described below, the compounds set forth in the examples herein disclosed inhibited the HIV enzyme. The preferred compounds of the present invention and their calculated IC50 (inhibiting concentration 50%, i.e., the concentration at which the inhibitor compound reduces enzyme activity by 50%) values are shown in Table 18. The enzyme method is described below. The substrate is 2-aminobenzoyl-Ile-Nle-Phe(p-NO2)-Gln-ArgNH2. The positive control is MVT-101 (Miller, M. et al, Science, 246, 1149 (1989)] The assay conditions are as follows: Assay buffer: • 20 mM sodium phosphate, pH 6.4 • 20% glycerol • 1 mM EDTA • 1 mM DTT • 0.1% CHAPS
The above described substrate is dissolved in DMSO, then diluted 10 fold in assay buffer. Final substrate concentration in the assay is 80 µM.
HIV protease is diluted in the assay buffer to a final enzyme concentration of 12.3 nanomolar, based on a molecular weight of 10,780.
The final concentration of DMSO is 14% and the final concentration of glycerol is 18%. […] The increase in fluorescence is monitored at 4 time points (0, 8, 16 and 24 minutes) at ambient temperature. […]

Another test deals with HIV-1. In words: CEM cell assay: HIV inhibition in acutely infected cells, tetrazolium (MTT) based colorimetric assay. Conditions: Table 19; test concentration not given; CEM cells infected with HIV-1, 7 days. Here is the method:
The effectiveness of the compounds listed in Table 19 were determined in the above-described enzyme assay and in a CEM cell assay.
Methods 20, 309-321 (1988).

At HIV protease, `CC(C)CCN(C[C@@H](O)[C@H](Cc1ccccc1)NC(=O)[C@H](CC(N)=O)NC(=O)c1ccc2ccccc2n1)C(=O)CC(C)(C)C` (relative stereo) [Compound 1, Butanediamide, N^1-[3-[[[(2,2-dimethyl)propyl]carbonyl](3-methylbutyl)amino]-2-hydroxy-1-(phenylmethyl)propyl]-2-[(2-quinolinylcarbonyl)amino]-, [1S-[1R*(2R*),2S*]]] yielded a half-inhibitory concentration (IC50) of 0.021 µM. Besides, in the test on HIV-1, the Inhibition is given as 100%.
Turning to `CCCCC(=O)N(CC1CCCCC1)C[C@@H](O)[C@H](Cc1ccccc1)NC(=O)[C@H](CC(N)=O)NC(=O)OCc1ccccc1` (relative stereo) [Compound 2, Butanediamide, N^1-[3-[[butylcarbonyl](cyclohexylmethyl)amino]-2-hydroxy-1-(phenylmethyl)propyl]-2-[(phenylmethyloxy)carbonyl)amino]-, [1S-[1R*(2R*),2S*]]], the IC50 at HIV protease worked out at 0.696 µM.

A word on the IC50: it is the point on the concentration scale where inhibition reaches its midpoint. Low readings indicate higher potency, high ones lower potency. For orientation: Inhibition means the drop in the measured response relative to a control, in per cent. Read a low Inhibition as a response near the control.
